Experimental data: paper PMC6332183, “α-Glucosidase Inhibitors from Vauquelinia corymbosa” (Molecules, 2015)
Like-named read-outs stand apart in the source and are kept apart here. Marks after values point to notes of the source that are not given here.

Experiments:
[1] = test system: rat small intestinal α-glucosidases; test: rat small intestinal α-glucosidase inhibitory assay (pNPG); format: biochemical
Description: (§1) Aliquots of 0–10 μL of testing materials (triplicated) were incubated for 10 min with 20 μL of an enzyme solution of yeast α-glucosidase (Sigma-Aldrich, 0.4 units/mL in PBS) or mammalian α-glucosidase (Sigma-Aldrich, 40 mg). The mammalian enzyme was separated from rat intestinal acetone powder, which was hand homogenized using 1 mL of ice-cold PBS. After sonicating during ten min, the content was centrifuged at 6400 rpm for 10 min (Microfuge Qualitron, Inc., Albany, NY, USA). The supernatant was recovered and used for the in vitro assay.
(§2) After incubation with the enzymes 10 μL of p-nitrophenyl α-D-glucopyranoside (pNPG 5 mM and 10 mM in PSB, respectively) were added and then incubated for 20 min at 37 °C. Then, absorbances were determined in a BIO-RAD microplate reader model 680 at 405 nm.

[2] = target: T1, yeast α-glucosidase (Saccharomyces cerevisiae, UniProt P53341); test: yeast α-glucosidase inhibitory assay (pNPG, spectrophotocolorimetric); format: biochemical
Description: as §1, §2

[3] = test system: rat small intestinal α-glucosidases; set-up: method as in doi:10.1016/j.fshw.2014.11.003; details: values taken from reference; ref [22]; cited from earlier work
[4] = target: T1, yeast α-glucosidase; test: kinetic analysis (Lineweaver-Burk) with yeast α-glucosidase; format: biochemical; details: Lineweaver-Burk plot
Description: (§3) The mode of inhibition was determined by the Lineweaver-Burk plots. The inhibition constants were calculated using the following equation [36]: (2) v=Vmax×S/Km(1+[I]/Ki)+S(1+[I]/αKi) where v is the initial velocity in absence and presence of inhibitor; S and I are concentration of substrate and inhibitor, respectively; Vmax is the maximum velocity; Km is the Michaellis-Menten constant; Ki is the competitive inhibition constant and αKi is the uncompetitive inhibition constant. The kinetic data was analyzed using a computer program for nonlinear regressions (Graph Pad Prism 5.0, GraphPad Software, Inc., La Jolla, CA, USA).

[5] = test system: small intestinal rat α-glucosidase; test: kinetic analysis (Lineweaver-Burk) with small intestinal rat α-glucosidase
Description: as §3

[6] = mean ± SD of triplicate experiments, read-out: Rat Small Intestinal IC50

T1 sequence (P53341 whole entry): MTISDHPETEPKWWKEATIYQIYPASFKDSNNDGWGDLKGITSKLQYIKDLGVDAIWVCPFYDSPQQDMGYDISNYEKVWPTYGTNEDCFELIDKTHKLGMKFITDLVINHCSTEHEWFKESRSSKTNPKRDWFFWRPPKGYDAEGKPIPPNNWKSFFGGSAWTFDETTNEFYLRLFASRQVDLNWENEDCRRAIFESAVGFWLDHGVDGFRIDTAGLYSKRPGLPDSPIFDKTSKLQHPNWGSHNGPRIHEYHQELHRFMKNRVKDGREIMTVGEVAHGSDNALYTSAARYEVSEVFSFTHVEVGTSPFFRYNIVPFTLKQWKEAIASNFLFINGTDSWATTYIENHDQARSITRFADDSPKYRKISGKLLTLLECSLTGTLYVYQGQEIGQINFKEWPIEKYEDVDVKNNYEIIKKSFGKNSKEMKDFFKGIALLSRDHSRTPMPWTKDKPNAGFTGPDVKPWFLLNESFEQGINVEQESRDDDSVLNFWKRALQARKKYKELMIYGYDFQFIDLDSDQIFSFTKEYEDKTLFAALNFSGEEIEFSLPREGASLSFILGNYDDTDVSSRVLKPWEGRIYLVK

Row | Compound | Rat Small Intestinal Maximum Inhibition (%) [1] [%] | IC50 [1, 6] [µM] | Rat Small Intestinal % Inhibition obtained with 10.0 mM of inhibitor [1] | also measured
1 | O=c1c(O[C@@H]2O[C@H](CO)[C@@H](O)[C@H](O)[C@H]2O)c(-c2ccc(O)c(O)c2)oc2cc(O)cc(O)c12 [Compound 4, isoquercetin] | 71.0 | 1630 ± 110 |  | 
2 | COc1ccc(O[C@@H]2O[C@H](CO)[C@@H](O)[C@H](O)[C@H]2O)cc1 [Compound 8, methylarbutin] |  |  | 39.3 ^d % | 
3 | quercitrin [Compound 5] | 59.7 | 3340 ± 380 |  | Yeast Maximum Inhibition (%) [2]: 45.0%
4 | O=c1c(O[C@@H]2O[C@H](CO)[C@H](O)[C@H](O)[C@H]2O)c(-c2ccc(O)c(O)c2)oc2cc(O)cc(O)c12 [Compound 3, hyperoside] | 65.1 | 1980 ± 150 |  | 
5 | Oc1cc(O)c2c(c1)O[C@@H](c1ccc(O)c(O)c1)[C@@H](O)C2 [Compound 2, (−)-epi-catechin] |  |  | 15.2 ^d % | 
6 | CC(=O)c1ccc(O[C@@H]2O[C@H](CO)[C@@H](O)[C@H](O)[C@H]2O)cc1 [Compound 7, picein] | 52.6 | 10700 ± 960 |  | 
7 | O=c1c(O)c(-c2ccc(O)c(O)c2)oc2cc(O)cc(O)c12 [Compound 9, quercetin] |  |  |  | IC50 [3]: 216 µM
8 | N#C[C@H](O[C@@H]1O[C@H](CO)[C@@H](O)[C@H](O)[C@H]1O)c1ccccc1 [Compound 1, prunasin] |  |  | 44.5 ^d % | 
9 | C[C@H]1O[C@H](O[C@H]2[C@H](O)[C@@H](O)[C@@H](O[C@H]3[C@H](O)[C@@H](O)C(O)O[C@@H]3CO)O[C@@H]2CO)[C@H](O)[C@@H](O)[C@@H]1N[C@H]1C=C(CO)[C@@H](O)[C@H](O)[C@H]1O (stereo partly shown) [Acarbose, acarbose, reference compound] | 80.2 | 100 ± 3 |  | Yeast Maximum Inhibition (%) [2]: 89.7%
10 | O=C(OC[C@H]1O[C@@H](Oc2c(-c3ccc(O)c(O)c3)oc3cc(O)cc(O)c3c2=O)[C@H](O)[C@@H](O)[C@H]1O)c1ccccc1 [Compound 6, quercetin-3-O-(6′′-benzoyl)-β-galactoside] | 75.8 | 430 ± 30 |  | mode of inhibition, yeast α-glucosidase [4]: mixed-type inhibitor; mode of inhibition, rat α-glucosidase ([5]; Lineweaver-Burk plot): mixed-type inhibitor; Ki ([5]; read-out: inhibition constant Ki, rat enzyme (abstract), mixed-type inhibition): 212 µM; IC50 ([1]; read-out: IC50, mammalian enzyme): 437 µM
